Results published in patent publication US20060252780A1, “Fused pyrimidine derivatives” (Kyowa Hakko Kogyo Co., Ltd., priority 2003, published 2006).
Counter-ions that a name gives are not always drawn.

System: Pancreatic β cell line MIN6 cells
Assay: Insulin secretion stimulating activity in cultured β cells (MIN6), insulin in the supernatant by enzyme immunoassay or radioimmunoassay
Assay type: cell-based
Conditions: drug concentration 1.0 μmol/L, 14.5 mmol/L glucose, 45 min after stimulation, average of 3 to 4 tests, None (no drug) 148.4
Experimental: Insulin Secretion Stimulating Activity in Cultured β Cells
Pancreatic β cell line MIN6 cells reported by Miyazaki, et al. [see Endocrinology, (1990) 127, p. […] 1139-1145]. In MIN6 cells, insulin secretion increase responding to a sulfonylurea agents, such as Glybenclamide, which are used as a therapeutic agent for diabetes (Cellular Signaling, (1993) 5, p. 777-786). Therefore, the above-mentioned culture of MIN6 cells and an insulin secretion test using the MIN6 cells were performed according to the method described in Diabetologia, (1993) 36, p. 1139-1145.
The effects of a compound on an insulin secretion activity under the presence of 14.5 mmol/L glucose was determined by measuring insulin amount in cell-culture supernatant collected as follows:
MIN6 cells cultured in a 24-well plate were washed twice with 1 mL of buffer solution A (pH 7.3) containing 2 mmol/L glucose. Buffer solution A consists of 119 mmol/L sodium chloride, 4.74 mmol/L potassium chloride, 2.54 mmol/L calcium chloride, 1.19 mmol/L magnesium sulfate, 1.19 mmol/L potassium dihydrogen phosphate, 10 mmol/L 2-[4-(2-hyroxyethyl)-1-piperazinyl]ethane sulfonic acid and 0.1% bovine serum albumin. Then, the cells were incubated in 1 mL of buffer solution A containing 2 mmol/L glucose at 37° C. for 45 minutes. After the incubation, the culture supernatant was exchanged with 0.9 mL of buffer solution A containing each test compound at various concentrations and 2 mmol/L glucose. The cells were further incubated at 37° C. for 15 minutes. Then, the MIN6 cells were stimulated with glucose by adding 0.1 mL of buffer solution A containing 127 mmol/L glucose (a final glucose concentration: 14.5 mmol/L). After the stimulation, the cells were further incubated at 37° C. for 45 minutes, and the supernatant was collected.
Antibody reactive insulin secreted in the culture supernatant was diluted with a phosphate buffer solution containing 1% bovine serum albumin, 0.1% Tween 20, 0.12% ethylenediaminetetraacetic acid (EDTA) disodium salt and 0.1% sodium azide, and then quantitatively measured by enzyme immunoassay or radioimmunoassay. The insulin levels were indicated as the amount of human insulin (ng/mLY. The results are indicated by averages (avg) and standard errors (se) of 3 to 4 tests.

Q: Which “Insulin secretion content (ng/mL) ave” value does the source give for `CCCN1C(=O)N2C[C@@H](Cc3ccncc3)N=C2c2cn(C3CCCC3)nc21` [Compound 8, (R)-8-Cyclopentyl-2,3-dihydro-6-propyl-2-(4-picolyl)-8H-imidazo[1,2-c]pyrazolo[4,3-e]pyrimidin-5(6H)-one] here?
A: Its value is 183.9 ng/mL.

Q: `CCCN1C(=O)N2C[C@@H](Cc3ccccc3)N=C2c2nn(C3CCCC3)cc21` [Compound 10, (R)-8-Benzyl-2-cyclopentyl-7,8-dihydro-4-propyl-2H-imidazo[1,2-c]pyrazolo[3,4-e]pyrimidin-5(4H)-one hydrochloride] was tested. Which “Insulin secretion content (ng/mL) ave” value did it give?
A: Its value is 184.7 ng/mL.

Q: For `CCCN1C(=O)N2CC(Cc3ccc(Cl)cc3)N=C2c2cn(-c3ccccc3)nc21` (stereo not shown) [Compound 5, 2-(4-Chlorobenzyl)-2,3-dihydro-8-phenyl-6-propyl-8H-imidazo[1,2-c]pyrazolo[4,3-e]pyrimidin-5(6H)-one], which “Insulin secretion content (ng/mL) ave” value is on record?
A: The value was 190.9 ng/mL.

Q: For `CCCN1C(=O)N2C[C@@H](Cc3ccccc3)N=C2c2nn(-c3ccccc3)cc21` [Compound 9, (R)-8-Benzyl-7,8-dihydro-2-phenyl-4-propyl-2H-imidazo[1,2-c]pyrazolo[3,4-e]pyrimidin-5(4H)-one], which “Insulin secretion content (ng/mL) ave” value is on record?
A: Its value is 174.3 ng/mL.

Q: Which “Insulin secretion content (ng/mL) ave” value does the source give for `CCCN1C(=O)N2C[C@@H](Cc3ccccc3)N=C2c2cn(C3CCCC3)nc21` [Compound 7, (R)-2-Benzyl-8-cyclopentyl-2,3-dihydro-6-propyl-8H-imidazo[1,2-c]pyrazolo[4,3-e]pyrimidin-5(6H)-one hydrochloride] here?
A: Its value is 224.8 ng/mL.

Q: With `CCCN1C(=O)N2C[C@@H](Cc3ccccc3)N=C2c2[nH]c(-c3ccccc3)cc21` [Compound 2, (R)-8-Benzyl-7,8-dihydro-2-phenyl-4-propyl-1H-imidazo[1,2-c]pyrrolo[2,3-e]pyrimidin-5(4H)-one] as the compound, how does the “Insulin secretion content (ng/mL) ave” value read?
A: The value was 187.1 ng/mL.

Q: For `CCCN1C(=O)N2C[C@@H](Cc3ccccc3)N=C2c2cn(-c3ccccc3)nc21` [Compound 3, (R)-2-Benzyl-2,3-dihydro-8-phenyl-6-propyl-8H-imidazo[1,2-c]pyrazolo[4,3-e]pyrimidin-5(6H)-one], which “Insulin secretion content (ng/mL) ave” value is on record?
A: The value was 213.2 ng/mL.

Q: `CCCN1C(=O)N2C[C@@H](Cc3ccccc3)N=C2c2cc(-c3ccccc3)[nH]c21` [Compound 1, (R)-2-Benzyl-2,3-dihydro-8-phenyl-6-propyl-7H-imidazo[1,2-c]pyrrolo[3,2-e]pyrimidin-5(6H)-one] was tested. Which “Insulin secretion content (ng/mL) ave” value did it give?
A: The value was 204.3 ng/mL.

Q: How did the “Insulin secretion content (ng/mL) ave” value turn out when `CCCN1C(=O)N2CC(Cc3ccc(F)cc3)N=C2c2cn(-c3ccccc3)nc21` (stereo not shown) [Compound 4, 2-(4-Fluorobenzyl)-2,3-dihydro-8-phenyl-6-propyl-8H-imidazo[1,2-c]pyrazolo[4,3-e]pyrimidin-5(6H)-one] was run?
A: Its value is 212.1 ng/mL.

Q: With `CCCN1C(=O)N2CC(Cc3ccncc3)N=C2c2cn(-c3ccccc3)nc21` (stereo not shown) [Compound 6, 2,3-Dihydro-8-phenyl-6-propyl-2-(4-picolyl)-8H-imidazo[1,2-c]pyrazolo[4,3-e]pyrimidin-5(6H)-one] as the compound, how does the “Insulin secretion content (ng/mL) ave” value read?
A: The value was 172.5 ng/mL.
